Measured values from PMC8456958, “Selective Bacterial Targeting and Infection‐Triggered Release of Antibiotic Colistin Conjugates” (Angewandte Chemie (International Ed. in English), 2021).
Values after ≈ are worked out from the molar mass of the structure shown. Positions of bridges follow the written chain, without caps; N, C: chain ends. Non-standard residues stand in square brackets, D forms with d. Residues, ends and D or L forms follow the SMILES beside them. *: point of attachment. Heptanoyl(6-Me) = CC(C)CCCCC(=O)*; Dab = NCC[C@H](N)C(=O)O

System: E. coli K12
Type: cell-based, Escherichia coli
Procedure: Determination of antibacterial activities by broth dilution assay
Bacterial suspensions at 5-6 x 10^5 CFU (1:1000 dilution of a bacterial suspension of OD600 = 1) in T-medium were incubated in volumes of 200 µl in sterile clear 96-well microtiter plates at 37 °C in a wet chamber with serial dilution of peptide-colistin constructs and controls (32 – 0.016 µM) for 18 h.
External neutrophil elastase was added at 10 mU/ml or 100 mU/ml to each well at the start of incubation, where indicated. After the incubation, the plate was placed for 5 min on a MTP shaker to generate homogenous bacterial suspensions. OD600 was then determined in a microplate reader. The wells with the lowest compound concentration without growth defined the MICs. […]
Figure S7. Heat plot of the growth of E. coli K12 and E. coli DSM 1116 in presence of 6. Rows A-D: E. coli K12; Rows E-H: E. coli DSM 1116; A + E colistin; B + F peptide-colistin construct 6; C + G peptide-colistin construct 6 + 10 mU/ml elastase; D + H bacteria without compounds. The numbers below the heatplot depict the concentration of colistin and peptides in µM. Conditions: T medium, incubation 20 h at 37 °C in wet chamber; inoculum: cultures at OD = 1.0 diluted 1:1000 (5-6 x 10^5 CFU/ml). […]
Figure S10. Heat plot of the growth of E. coli in presence of 48 and 49. Row A: E. coli K12 without added compounds; B colistin B; C peptide-colistin construct 49; D peptide-colistin construct 49 + 10 mU/ml elastase; E ElsaSub-colistin; F 48 with 10 mU elastase; G 4; H 4 with […]. The numbers depict the concentration of colistin and peptides in µM. Conditions: T medium, incubation 17.5 h at 37 °C in wet chamber; inoculum 5-6 x 10^5 CFU/ml. […]
with elastase 10 mU/ml pos-1-isomer (22) […]
with elastase 10 mU/ml pos-3-isomer (28) […]
with elastase 10 mU/ml pos-5-isomer (34) […]
with elastase 10 mU/ml pos-8-isomer (40) […]
with elastase 10 mU/ml pos-9-isomer (46)
Figure S11. Heat plot of the growth of E. coli in presence of positional isomers obtained by total chemical synthesis. Conditions: T medium, incubation for 20 h at 37 °C in wet chamber; inoculum 5-6 x 10^5 CFU/ml. Addition of neutrophil elastase at 10 and 100 mU/ml, as indicated. Concentrations of isomers stated below the heat plot in µg/ml. […]

[1] = Table 2, E. coli K12, conservative MIC readouts of at least three independent biological experiments

CC(C)CCCCC(=O)N[C@@H](CCN)C(=O)N[C@H](C(=O)N[C@@H](CCN)C(=O)N[C@H]1CCNC(=O)[C@H]([C@@H](C)O)NC(=O)[C@H](CCN)NC(=O)[C@H](CCN)NC(=O)[C@H](CC(C)C)NC(=O)[C@@H](CC(C)C)NC(=O)[C@H](CCN)NC1=O)[C@@H](C)O [Compound 1, colistin B, reference compound] ({Heptanoyl(6-Me)}-[Dab]T[Dab][Dab][Dab][dL]L[Dab][Dab]T; lactam 4-C)
MIC, E. coli K12 (Table 1, without elastase, broth dilution, T-medium, 5-6 x 10^5 CFU, 37 °C, OD600 readout): 0.063 µM (≈ 0.0728 µg/mL)
MIC with 10 mU mL^−1 Elastase [1]: 0.031 µM
MIC with 100 mU mL^−1 Elastase [1]: 0.031 µM
MIC without Elastase [1]: 0.031 µM (≈ 0.0358 µg/mL)
